Measured values as given in US20220009920A1 (GB005, Inc., priority 2020, published 2022).
Like-named read-outs stand apart in the source and are kept apart here.

Assays:
[1] = Plasma and total brain concentrations at 1 h post single oral administration to male Wistar Han rats; assay type: in vivo; settings: rat, 10 mg/kg oral gavage; for Kp at 1 h: brain/plasma, read-out: brain to plasma ratio
Method: The appropriate amount of test article was dissolved 10% dimethylacetamide (DMA)/90% (20% hydroxypropyl-β-cyclodextrin (HP-B-CD) w/v in water to obtain a final concentration of 1 mg/mL for oral dosing. Sonication, vortex, and homogenization was used as needed. Three male Wistar Han rats aged 6-8 weeks (200-300 grams) were dosed by oral gavage 10 mg/kg solution of the test article.
At 1 h, blood and whole brains were collected. Blood was collected via cardiac puncture into tubes containing potassium EDTA and kept on ice until plasma collection. Plasma was obtained via centrifugation at 4000×g for five minutes at 4° C. Following exsanguination, animals were transcardially perfused with approximately 20 mL of saline, and brains were collected and immediately frozen. Plasma and brains were at −75±15° C. until analysis.
The desired serial concentrations of working solutions were achieved by diluting stock solution of analyte with 50% acetonitrile in water solution. 5 μL of working solutions (2, 5, 10, 50, 100, 500, 1000, 5000, 10000 ng/mL) were added to 50 μL of the male blank Wistar Han rats plasma, brain homogenate to achieve calibration standards of 0.2˜1000 ng/mL (0.2, 0.5, 1, 5, 10, 50, 100, 500, 1000 ng/mL) in a total volume of 55 μL. Four quality control samples at 0.5 ng/mL, 1 ng/mL, 50 ng/mL and 800 ng/mL for plasma, brain homogenate were prepared independently of those used for the calibration curves. These QC samples were prepared on the day of analysis in the same way as calibration standards.
55 μL of standards, 55 μL of QC samples and 55 μL of unknown samples (50 μL of plasma, brain homogenate with 5 μL of blank solution) were added to 200 μL of acetonitrile containing IS mixture for precipitating protein respectively. Then the samples were vortexed for 30 s. After centrifugation at 4° C., 4700 rpm for 15 min, the supernatant was diluted 3 times with water. 10 μL of diluted supernatant was injected into the LC/MS/MS system for quantitative analysis.

288 kinases = assay: Large panel kinase profiling, overall selectivity; assay type: biochemical; settings: 1 μM test article, 1 mM ATP
Method: (§1) Large panel kinase profiling was performed at AssayQuant Technologies, Inc. 260 Cedar Hill Street, Marlborough, Mass. 01752 using the PhosphoSens® CSox-Sensor platform using 1 μM test article concentration and 1 mM ATP concentration (www.assayquant.com). Reactions were run in Corning, half-area 96-well, white flat round bottom polystyrene NBS microplates (Cat. #3642) after sealing using optically-clear adhesive film (TopSealA-Plus plate seal, PerkinElmer), applied with either a roller or a paddle to eliminate evaporation and resulting drift. The standard total reaction volume was 50 μL. All experiments were ran at 30° C. to control for fluctuations in ambient temperature. Plates were read from the top in kinetic mode (readings taken every 1 min), monitoring fluorescence intensity with filters using Ex 360 nm and Em 485 nm and a band width of 40 and 20 nm, respectively, and a gain of 80. Data analysis was performed using either Graphpad Prism or Gene Data Screener software.

EIF2AK3/PEK = molecular target: T1, EIF2AK3/PEK (Homo sapiens, UniProt Q9NZJ5); assay: Large panel kinase profiling; assay type: biochemical; settings: 1 μM test article, 1 mM ATP
T1 sequence (Q9NZJ5 30-1116): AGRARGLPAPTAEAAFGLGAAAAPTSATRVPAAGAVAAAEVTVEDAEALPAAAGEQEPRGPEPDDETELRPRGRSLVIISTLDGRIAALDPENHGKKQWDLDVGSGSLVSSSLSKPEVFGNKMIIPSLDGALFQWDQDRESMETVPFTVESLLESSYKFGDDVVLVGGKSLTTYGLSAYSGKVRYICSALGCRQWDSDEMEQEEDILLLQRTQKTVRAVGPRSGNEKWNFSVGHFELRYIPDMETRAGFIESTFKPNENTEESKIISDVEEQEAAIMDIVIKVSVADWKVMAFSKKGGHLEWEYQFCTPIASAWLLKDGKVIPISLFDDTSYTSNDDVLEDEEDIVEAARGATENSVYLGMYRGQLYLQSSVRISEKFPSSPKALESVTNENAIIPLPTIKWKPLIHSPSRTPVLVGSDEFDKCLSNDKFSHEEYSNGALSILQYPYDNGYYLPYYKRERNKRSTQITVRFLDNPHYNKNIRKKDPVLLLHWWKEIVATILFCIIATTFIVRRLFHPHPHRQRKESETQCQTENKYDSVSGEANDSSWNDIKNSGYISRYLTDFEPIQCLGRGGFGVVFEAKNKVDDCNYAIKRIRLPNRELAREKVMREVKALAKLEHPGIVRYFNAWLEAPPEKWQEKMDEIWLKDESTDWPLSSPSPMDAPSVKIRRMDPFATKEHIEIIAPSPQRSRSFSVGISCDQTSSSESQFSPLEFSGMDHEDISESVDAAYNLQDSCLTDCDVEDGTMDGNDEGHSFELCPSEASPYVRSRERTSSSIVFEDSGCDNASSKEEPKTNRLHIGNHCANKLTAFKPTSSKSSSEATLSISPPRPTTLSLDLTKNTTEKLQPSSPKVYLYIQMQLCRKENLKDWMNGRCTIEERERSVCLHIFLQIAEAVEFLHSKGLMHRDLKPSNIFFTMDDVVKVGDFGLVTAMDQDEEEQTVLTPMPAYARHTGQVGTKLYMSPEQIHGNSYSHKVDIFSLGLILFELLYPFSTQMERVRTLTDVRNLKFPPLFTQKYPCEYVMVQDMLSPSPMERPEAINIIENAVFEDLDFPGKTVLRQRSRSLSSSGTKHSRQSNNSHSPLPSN
Method: as §1

PAK1 = PAK1 (Homo sapiens, UniProt Q13153); assay: Large panel kinase profiling; assay type: biochemical; settings: 1 μM test article, 1 mM ATP
Sequence of PAK1 (Q13153 whole entry): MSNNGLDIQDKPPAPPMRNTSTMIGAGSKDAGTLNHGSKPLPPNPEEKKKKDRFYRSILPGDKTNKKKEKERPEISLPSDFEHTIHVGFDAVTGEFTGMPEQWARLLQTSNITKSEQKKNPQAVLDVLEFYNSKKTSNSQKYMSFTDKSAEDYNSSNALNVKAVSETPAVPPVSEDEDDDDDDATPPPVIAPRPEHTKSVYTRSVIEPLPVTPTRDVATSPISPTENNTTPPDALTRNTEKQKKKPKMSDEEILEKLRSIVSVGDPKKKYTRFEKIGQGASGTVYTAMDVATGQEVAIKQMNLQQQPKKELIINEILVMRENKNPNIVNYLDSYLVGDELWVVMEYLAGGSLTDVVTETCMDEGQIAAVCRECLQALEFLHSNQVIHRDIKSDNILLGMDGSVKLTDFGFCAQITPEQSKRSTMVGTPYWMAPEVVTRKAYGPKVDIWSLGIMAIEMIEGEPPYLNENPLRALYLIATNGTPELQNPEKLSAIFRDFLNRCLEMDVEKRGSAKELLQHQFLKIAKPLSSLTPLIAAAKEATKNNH
Method: as §1

[2] = plasma, read-out: Mean [plasma]

Row | SMILES | concentration at 1 h ([1]; brain, read-out: Mean [brain]) | Kp at 1 h [1] | concentration at 1 h [1, 2] | selectivity in the large panel kinase screen (288 kinases) | inhibition at 1 µM (EIF2AK3/PEK) | inhibition at 1 µM (PAK1)
1 | C=CC(=O)N1CCCC(c2c(F)cc(C(N)=O)c3[nH]c4c(c23)CCCCC4)C1 (single isomer, unassigned) [Compound 5-6] | 84 ng/mL | 0.43 | 196 ng/mL | highly selective | -9.2% | 9.3%
2 | C=CC(=O)N1CCC[C@@H](c2c(F)cc(C(N)=O)c3[nH]c4c(c23)CC2(CC4)CC2)C1 [Compound 6-2, (S)-5-(1-acryloylpiperidin-3-yl)-6-fluoro-1,2,4,9-tetrahydrospiro[carbazole-3,1′-cyclopropane]-8-carboxamide] | 108 ng/mL | 0.28 | 395 ng/mL | highly selective | -18.5% | 11.4%
3 | C=CC(=O)N1CCC[C@@H](c2c(F)cc(C(N)=O)c3[nH]c4c(c23)CCC4)C1 [Compound 10-2, (S)-8-(1-acryloylpiperidin-3-yl)-7-fluoro-1,2,3,4-tetrahydrocyclo-penta[b]indole-5-carboxamide] | 116 ng/mL | 0.29 | 421 ng/mL | highly selective | -3.5% | 6.8%
